According to patent US20110201818A1, “POLO-LIKE KINASE INHIBITORS” (TAKEDA PHARMACEUTICAL COMPANY LIMITED, priority 2007, published 2011):

Legend:
human PLK1 = molecular target: T1, human PLK1 (Homo sapiens, UniProt P53350); test: PLK1 in vitro enzymatic activity assay (phosphorylation of alpha casein by recombinant PLK1); format: biochemical; settings: recombinant FLAG-tagged PLK1, alpha casein substrate, 500 nmol/L ATP, 40 min at room temperature; read-out: pIC50 (PLK1) (converted)
T1 construct: FLAG (DYKDDDDK) (N); made in house; host or cells: Sf21 insect cells, recombinant baculovirus (pFASTBAC1, Bac-to-Bac)
T1 sequence (P53350 with tags, fused parts or gaps): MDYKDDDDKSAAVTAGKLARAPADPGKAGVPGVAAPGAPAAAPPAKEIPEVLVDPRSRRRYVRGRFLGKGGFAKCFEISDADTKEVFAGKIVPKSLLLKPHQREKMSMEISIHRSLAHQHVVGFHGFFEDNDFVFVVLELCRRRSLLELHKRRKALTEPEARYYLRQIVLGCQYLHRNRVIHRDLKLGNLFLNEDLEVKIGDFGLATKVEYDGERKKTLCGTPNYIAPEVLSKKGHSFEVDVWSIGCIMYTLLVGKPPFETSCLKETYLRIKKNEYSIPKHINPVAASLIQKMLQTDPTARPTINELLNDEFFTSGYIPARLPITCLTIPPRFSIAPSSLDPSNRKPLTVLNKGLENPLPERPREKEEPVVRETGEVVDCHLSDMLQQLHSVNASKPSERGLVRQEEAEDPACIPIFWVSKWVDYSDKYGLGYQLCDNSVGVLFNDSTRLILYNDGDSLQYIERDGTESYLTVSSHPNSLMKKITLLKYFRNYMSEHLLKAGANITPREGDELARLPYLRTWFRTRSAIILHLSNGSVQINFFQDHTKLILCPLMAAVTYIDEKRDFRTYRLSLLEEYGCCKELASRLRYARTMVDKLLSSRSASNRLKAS
How it was run: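 Recombinant PLK1 from baculovirus-infected Sf21 cells (50 ng) phosphorylated 3 μg alpha casein for 40 min at room temperature in HEPES pH 7.5, Mg acetate, DTT buffer with 500 nmol/L ATP plus [γ-32P]ATP. TCA-precipitated phosphoprotein was filter-captured, washed, and counted by scintillation.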

| Compound | IC50 (human PLK1) | melting point |
| --- | --- | --- |
| COc1cc(C(=O)NC2CN(C)C2)ccc1Nc1ncc2c(n1)N(C1CCCC1)CC(F)(F)C(=O)N2C [Compound 4, 4-(9-Cyclopentyl-7,7-difluoro-5-methyl-6-oxo-6,7,8,9-tetrahydro-5H-pyrimido[4,5-b][1,4]diazepin-2-ylamino)-3-methoxy-N-(1-methylazetidin-3-yl)benzamide] | ≤ 2 nM | 157 to 162 °C |
| COc1cc(C(=O)NN2CCN(C)CC2)ccc1Nc1ncc2c(n1)N(C1CCCC1)CC(F)(F)C(=O)N2C [Compound 6, 4-(9-cyclopentyl-7,7-difluoro-5-methyl-6-oxo-6,7,8,9-tetrahydro-5H-pyrimido[4,5-b][1,4]diazepin-2-ylamino)-3-methoxy-N-(4-methylpiperazin-1-yl)benzamide] | – | 168 to 174 °C |
| COc1cc(C(=O)N[C@@H]2CCN(C)C2)ccc1Nc1ncc2c(n1)N(C1CCCCC1)CC(F)(F)C(=O)N2C [Compound 39, (R)-4-(9-cyclohexyl-7,7-difluoro-5-methyl-6-oxo-6,7,8,9-tetrahydro-5H-pyrimido[4,5-b][1,4]diazepin-2-ylamino)-3-methoxy-N-(1-methylpyrrolidin-3-yl)benzamide] | > 2 nM | 98 to 99 °C |
| COc1cc(C(=O)NC2CCC(N(C)C)CC2)ccc1Nc1ncc2c(n1)N(C1CCCCC1)CC(F)(F)C(=O)N2C (stereo not shown) [Compound 49, 4-(9-cyclohexyl-7,7-difluoro-5-methyl-6-oxo-6,7,8,9-tetrahydro-5H-pyrimido[4,5-b][1,4]diazepin-2-ylamino)-N-(4-(dimethylamino)cyclohexyl)-3-methoxybenzamide] | ≤ 2 nM | 208 to 214 °C |
| COc1cc(C(=O)NC2CCN(CC(F)(F)F)CC2)ccc1Nc1ncc2c(n1)N(C1CCCCC1)CC(F)(F)C(=O)N2C [Compound 50, 4-(9-cyclohexyl-7,7-difluoro-5-methyl-6-oxo-6,7,8,9-tetrahydro-5H-pyrimido[4,5-b][1,4]diazepin-2-ylamino)-3-methoxy-N-(1-(2,2,2-trifluoroethyl)piperidin-4-yl)benzamide] | ≤ 2 nM | 213 to 215 °C |
| COc1cc(C(=O)NN2CCN(C3CCCC3)CC2)ccc1Nc1ncc2c(n1)N(C1CCCCC1)CC(F)(F)C(=O)N2C [Compound 52, 4-(9-cyclohexyl-7,7-difluoro-5-methyl-6-oxo-6,7,8,9-tetrahydro-5H-pyrimido[4,5-b][1,4]diazepin-2-ylamino)-N-(4-cyclopentylpiperazin-1-yl)-3-methoxybenzamide] | > 2 nM | 98 to 99 °C |
| COc1cc(C(=O)NC2CCN(C(=O)CN(C)C)CC2)ccc1Nc1ncc2c(n1)N(C1CCCCC1)CC(F)(F)C(=O)N2C [Compound 71, 4-(9-cyclohexyl-7,7-difluoro-5-methyl-6-oxo-6,7,8,9-tetrahydro-5H-pyrimido[4,5-b][1,4]diazepin-2-ylamino)-N-(1-(2-(dimethylamino)acetyl)piperidin-4-yl)-3-methoxybenzamide] | ≤ 2 nM | 190 to 191 °C |
| COc1cc(C(=O)N[C@H]2CCNC2)ccc1Nc1ncc2c(n1)N(C1CCCCC1)CC(F)(F)C(=O)N2C [Compound 72, (S)-4-(9-cyclohexyl-7,7-difluoro-5-methyl-6-oxo-6,7,8,9-tetrahydro-5H-pyrimido[4,5-b][1,4]diazepin-2-ylamino)-3-methoxy-N-(pyrrolidin-3-yl)benzamide] | ≤ 2 nM | 258 to 263 °C |
| COc1cc(C(=O)N[C@@H]2CCNC2)ccc1Nc1ncc2c(n1)N(C1CCCCC1)CC(F)(F)C(=O)N2C [Compound 73, (R)-4-(9-cyclohexyl-7,7-difluoro-5-methyl-6-oxo-6,7,8,9-tetrahydro-5H-pyrimido[4,5-b][1,4]diazepin-2-ylamino)-3-methoxy-N-(pyrrolidin-3-yl)benzamide] | ≤ 2 nM | 195 to 198 °C |
| C=CC1(F)CN(C2CCCC2)c2nc(Nc3ccc(C(=O)N[C@@H]4CCCNC4)cc3OC)ncc2N(C)C1=O (stereo partly drawn) [Compound 102, 4-(9-cyclopentyl-7-fluoro-5-methyl-6-oxo-7-vinyl-6,7,8,9-tetrahydro-5H-pyrimido[4,5-b][1,4]diazepin-2-ylamino)-3-methoxy-N—((R)-piperidin-3-yl)benzamide] | ≤ 2 nM | 169 to 172 °C |
